Measured values as given in publication PMC7521880 (European Journal of Medicinal Chemistry, 2020).

These compounds were tested on varicella-zoster virus (VZV, TK+ Oka strain). Conditions: VZV in HEL cells; strain not specified.
Format: cell-based

Row | SMILES | Selectivity index (SI), ratio CC50 for HEL cells / EC50
1 | CCCCCc1ccc(-c2oc3nc(=O)n([C@H]4C[C@H](OC(C)=O)[C@@H](COC(C)=O)O4)cc3c2C#CCO)cc1 [Compound 7a, 3-(3′,5′-di-O-acetyl-2′-deoxy-β-D-ribofuranosyl)-5-(3-hydroxyprop-1-yn-1-yl)-6-(4-pentylphenyl)-2,3-dihydrofuro[2,3-d]pyrimidin-2-one] | ≤ 1
2 | CC(=O)OC[C@H]1O[C@@H](n2cc3c(C#Cc4ccc(C)cc4)c(-c4ccc(C)cc4)oc3nc2=O)C[C@@H]1OC(C)=O [Compound 6h, 3-(3′,5′-di-O-acetyl-2′-deoxy-β-D-ribofuranosyl)-6-(4-methylphenyl)-5-((4-methylphenyl)ethynyl)-2,3-dihydrofuro[2,3-d]pyrimidin-2-one] | ≤ 1
3 | CC(=O)OC[C@H]1O[C@@H](n2cc3c(C#CC4(O)c5ccccc5-c5ccccc54)c(-c4ccc(C)cc4)oc3nc2=O)C[C@@H]1OC(C)=O [Compound 6c, 3-(3′,5′-di-O-acetyl-2′-deoxy-β-D-ribofuranosyl)-5-((9-hydroxy-9H-fluoren-9-yl)ethynyl)-6-(4-methylphenyl)-2,3-dihydrofuro[2,3-d]pyrimidin-2-one] | ≤ 1
4 | CCCCCc1ccc(-c2oc3nc(=O)n([C@H]4C[C@H](OC(C)=O)[C@@H](COC(C)=O)O4)cc3c2C#CCCO)cc1 [Compound 7b, 3-(3′,5′-di-O-acetyl-2′-deoxy-β-D-ribofuranosyl)-5-(4-hydroxybut-1-yn-1-yl)-6-(4-pentylphenyl)-2,3-dihydrofuro[2,3-d]pyrimidin-2-one] | ≤ 1
